The structures appear in SMILES notation. Read-outs that look alike come from different tables or passages of the source.

Here are results for 37 compounds from US20230357242A1, “COMPOUND AS AKT KINASE INHIBITOR” (CHIA TAI TIANQING PHARMACEUTICAL GROUP CO., LTD., priority 2020, published 2023).

Assay [1] has as its target T1, AKT1 (S473) (Homo sapiens, UniProt P31749).
T1 construct: endogenous in cells; host or cells: LNcap cells
Nature of the assay: Inhibitory effect on phosphorylation of LNcap cells AKT1 (S473). In kind it is cell-based. The following applies: 1 h incubation. The protocol:
LNcap cells AKT1 (S473) growing at log phase were taken, digested with 1 mL of pancreatin for 3 min, and added with 4 mL of complete medium to terminate digestion. The cells were added to a centrifuge tube. 20 μL of cells were taken and counted, the required number of cells (mL) was taken and centrifuged at 1200 rpm for 5 min, and a plating medium (2% FBS+phenol-free red 1640 base medium+1% sodium pyruvate+1% glutamine) was added to adjust the cell density to about 1×10E6 cells/mL. The cells were plated (96 wells) at the above cell density (100 μL/well), and cultured in a cell incubator at 37° C., 5% CO2 overnight; the next day, according to the plate distribution, the corresponding compound was sprayed using a nanoliter pipettor and incubated for 1 h at 37° C. in a cell incubator containing 5% CO2; the supernatant was discarded, and the plate was added with 40 μL of lysis buffer (1×) containing blocking buffer and incubated by shaking at room temperature for 30 min. After the mixture was mixed, 16 μL of lysate was transferred to another 384-well small-volume white plate. The plate was added with 4 μL of pre-mixed antibody (v/v) in assay buffer, covered, centrifuged to mix well, and incubated overnight at room temperature. The 665 nm/620 nm signal value was detected using a PE Envision multi-functional microplate reader, and IC50 was calculated by four-parameter fitting.

The subject of assay [2] is LNcap cells. Put plainly: Inhibitory effect on proliferation of LNcap cells (CCK-8, 72 h). In kind it is cell-based. The following applies: Homo sapiens. Here is the method:
A dish of LNcap cells (human prostate cancer cells with PTEN deficiency) growing at log phase and in good conditions were taken and digested for 3 min by using 1 mL of pancreatin, then the mixture was added with 4 mL of complete culture medium to terminate digestion, and the cells were added to a centrifuge tube. 20 μL of cells were taken and counted, the required number of cells (mL) was pipetted and centrifuged at 1200 rpm for 5 min, the supernatant was discarded, and an appropriate amount of plating medium (RPMI medium+5% FBS+1% sodium pyruvate+1% glutamine) was added to adjust the cell density to 3×10^4 cells/mL. The cells were seeded on a 96-well plate at 100 μL/well using a multi-channel pipette and cultured in a cell incubator at 37° C., 5% CO2 and saturated humidity. After incubation overnight, compounds were loaded using a nanoliter pipettor, 2 duplicate wells were set for each concentration, and cells without compound were used as negative controls. After 72 h, CCK-8 was added at 10 μL/well for incubation for 4 h, then absorbance was measured at 450 nm with an Envision plate reader, and inhibition rate was calculated. Inhibition rate (%)=(mean value of negative control group−mean value of experimental group)/(mean value of negative control group−mean value of blank group)×100%. A dose-response curve was fitted by four-parameter analysis, with the logarithm of compound concentration as abscissa and inhibition rate as ordinate, so that IC50 was calculated.

[3] abbreviates: LNcap cells, CCK-8, read-out: LNcap cells IC50.
Where [4] appears, read: LNCaP, read-out: LNcap cells IC50.

T1 sequence (P31749 whole entry): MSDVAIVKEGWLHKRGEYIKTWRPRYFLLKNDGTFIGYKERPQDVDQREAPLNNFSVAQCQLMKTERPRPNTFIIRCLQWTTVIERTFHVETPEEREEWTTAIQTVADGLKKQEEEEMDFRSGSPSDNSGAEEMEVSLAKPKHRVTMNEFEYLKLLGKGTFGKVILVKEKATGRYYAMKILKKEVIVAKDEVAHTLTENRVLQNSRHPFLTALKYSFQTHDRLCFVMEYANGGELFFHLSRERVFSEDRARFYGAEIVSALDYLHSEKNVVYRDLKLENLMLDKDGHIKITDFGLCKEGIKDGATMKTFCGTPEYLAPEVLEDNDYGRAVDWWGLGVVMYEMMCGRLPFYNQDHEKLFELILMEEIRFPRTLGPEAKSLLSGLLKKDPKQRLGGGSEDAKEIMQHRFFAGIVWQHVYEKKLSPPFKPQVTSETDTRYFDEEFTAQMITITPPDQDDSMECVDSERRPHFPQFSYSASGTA

As usually defined, the IC50 is the concentration that gives 50% inhibition. Turning to `CC#CC(=O)N1CCCC1c1cccc(-c2ccc3nc(-c4cccnc4N)n(-c4ccc(C5(N)CCC5)cc4)c3n2)c1` (centres unmarked) [Compound 1], the results for the concentration for half-maximal inhibition (IC50) in assay [1] and in assay [2] (setting [3]) were 34 nM and 16 nM, respectively.
`C=CC(=O)NCc1cccc(-c2ccc3nc(-c4cccnc4N)n(-c4ccc(C5(N)CCC5)cc4)c3n2)c1` [Compound 2]: the concentration for half-maximal inhibition (IC50) in assay [1] came out at 17 nM; in assay [2] (setting [3]), 34 nM.
As for `C=CC(=O)Nc1ccc(-c2ccc3nc(-c4cccnc4N)n(-c4ccc(C5(N)CCC5)cc4)c3n2)cc1` [Compound 3], the IC50 was determined as 20 nM in assay [1] and 6.5 nM in assay [2] (setting [4]).
For `Nc1ncccc1-c1nc2ccc(-c3cccc(N4CC5(CCOCC5)C4)c3)nc2n1-c1ccc(C2(N)CCC2)cc1` [Compound 6], in that order: 54 nM and 15 nM.
For the compound `CC(=O)N1CC[C@@H](N(C)c2cccc(-c3ccc4nc(-c5cccnc5N)n(-c5ccc(C6(N)CCC6)cc5)c4n3)c2)C1` [Compound 7], the IC50 in assay [2] (setting [4]) came out at 48 nM.
With `Nc1ncccc1-c1nc2ccc(-c3cccc(N4CCN5C(=O)CCC5C4)c3)nc2n1-c1ccc(C2(N)CCC2)cc1` (centres unmarked) [Compound 9], the IC50 amounted to 16 nM in assay [1] and 24 nM in assay [2] (setting [3]).
For `CC1CN(C2COC2)CCN1c1cccc(-c2ccc3nc(-c4cccnc4N)n(-c4ccc(C5(N)CCC5)cc4)c3n2)c1` (centres unmarked) [Compound 10], the concentration for half-maximal inhibition (IC50) in assay [1] is 47 nM; in assay [2] (setting [4]) it was 21 nM.
Consider `Nc1ncccc1-c1nc2ccc(-c3cccc(N4CCN(C5COC5)CC4)c3)nc2n1-c1ccc(C2(N)CCC2)cc1` [Compound 11], for which the IC50 in assay [1] was 19 nM; in assay [2] (setting [3]), 12 nM.
With `Nc1ncccc1-c1nc2ccc(-c3cccc(N4CC5(COC5)C4)c3)nc2n1-c1ccc(C2(N)CCC2)cc1` [Compound 13], in assay [2] (setting [4]), the IC50 was 20 nM.
As to `CC(=O)N1CC2(C1)CN(c1cccc(-c3ccc4nc(-c5cccnc5N)n(-c5ccc(C6(N)CCC6)cc5)c4n3)c1)C2` [Compound 16], the IC50 was 19 nM in assay [1] and 8.7 nM in assay [2] (setting [3]).
Taken in the same sequence, the figures for `CS(=O)(=O)N1CC2(CN(c3cccc(-c4ccc5nc(-c6cccnc6N)n(-c6ccc(C7(N)CCC7)cc6)c5n4)c3)C2)C1` [Compound 17] were 17 nM and 12 nM.
With `Nc1ncccc1-c1nc2ccc(-c3cccc(N4CC5COCC5C4)c3)nc2n1-c1ccc(C2(N)CCC2)cc1` (centres unmarked) [Compound 18], the IC50 in assay [2] (setting [4]) was found to be 18 nM.
As to `Nc1ncccc1-c1nc2ccc(-c3cccc(N4CCCS4(=O)=O)c3)nc2n1-c1ccc(C2(N)CCC2)cc1` [Compound 20], the half-maximal inhibitory concentration (IC50) in assay [2] (setting [3]) was 15 nM.
Regarding `Nc1ncccc1-c1nc2ccc(-c3cccc(N4CCC(N5CCCC5=O)CC4)c3)nc2n1-c1ccc(C2(N)CCC2)cc1` [Compound 21], the IC50 worked out at 23 nM in assay [1] and 3 nM in assay [2] (setting [3]).
Consider `CC(=O)N(C)[C@@H]1CCN(c2cccc(-c3ccc4nc(-c5cccnc5N)n(-c5ccc(C6(N)CCC6)cc5)c4n3)c2)C1` [Compound 24], for which the IC50 in assay [2] (setting [4]) was 41 nM.
Regarding `CC(=O)N1CC2CN(c3cccc(-c4ccc5nc(-c6cccnc6N)n(-c6ccc(C7(N)CCC7)cc6)c5n4)c3)CC21` (centres unmarked) [Compound 26], the half-inhibitory concentration (IC50) in assay [2] (setting [3]) was found to be 14 nM.
On the same count and under the same terms, for `CC(=O)N(C)C1CCCN(c2cccc(-c3ccc4nc(-c5cccnc5N)n(-c5ccc(C6(N)CCC6)cc5)c4n3)c2)C1` (centres unmarked) [Compound 27] the value was 20 nM; for `CC(=O)N(C)CCN(C)c1cccc(-c2ccc3nc(-c4cccnc4N)n(-c4ccc(C5(N)CCC5)cc4)c3n2)c1` [Compound 29], 46 nM.
As for `CC(=O)N(C)[C@H]1CCN(c2cccc(-c3ccc4nc(-c5cccnc5N)n(-c5ccc(C6(N)CCC6)cc5)c4n3)c2)C1` [Compound 31], the IC50 in assay [2] (setting [4]) was determined as 28 nM.
In the case of `CN(C1CCN(c2cccc(-c3ccc4nc(-c5cccnc5N)n(-c5ccc(C6(N)CCC6)cc5)c4n3)c2F)CC1)S(C)(=O)=O` [Compound 32], the figures for the IC50 in assay [1] and in assay [2] (setting [3]) were 11 nM and 4.3 nM, respectively.
For `CN1CC2(CC1=O)CN(c1cccc(-c3ccc4nc(-c5cccnc5N)n(-c5ccc(C6(N)CCC6)cc5)c4n3)c1)C2` [Compound 33], in that order: 17 nM and 11 nM.
For `Nc1ncccc1-c1nc2ccc(-c3cccc(N4CCC(N5CCC(F)(F)C5=O)CC4)c3)nc2n1-c1ccc(C2(N)CCC2)cc1` [Compound 34], in that order: 25 nM and 2.9 nM.
For the compound `CC(=O)N1CCC2(CC1)CN(c1cccc(-c3ccc4nc(-c5cccnc5N)n(-c5ccc(C6(N)CCC6)cc5)c4n3)c1F)C2` [Compound 35], the concentration for half-maximal inhibition (IC50) in assay [1] was found to be 12 nM; in assay [2] (setting [3]) it was 5 nM.
Regarding `CC(=O)N1CC2(CCN(c3cccc(-c4ccc5nc(-c6cccnc6N)n(-c6ccc(C7(N)CCC7)cc6)c5n4)c3F)C2)C1` [Compound 36], the IC50 in assay [2] (setting [3]) amounted to 14 nM.
Consider `CC(=O)N1CCC2(C1)CN(c1cccc(-c3ccc4nc(-c5cccnc5N)n(-c5ccc(C6(N)CCC6)cc5)c4n3)c1F)C2` [Compound 37], for which the values for the IC50 in assay [1] and in assay [2] (setting [3]) were 11 nM and 7.6 nM, respectively.
With `[2H]C1([2H])CC(N2CCCC2=O)CC([2H])([2H])N1c1cccc(-c2ccc3nc(-c4cccnc4N)n(-c4ccc(C5(N)CCC5)cc4)c3n2)c1F` [Compound 38], the IC50 in assay [1] stood at 13 nM; in assay [2] (setting [3]), 11 nM.
Consider `CC1COC(=O)N1C1CCN(c2cccc(-c3ccc4nc(-c5cccnc5N)n(-c5ccc(C6(N)CCC6)cc5)c4n3)c2)CC1` (centres unmarked) [Compound 39], for which the IC50 was found to be 42 nM in assay [1] and 11 nM in assay [2] (setting [4]).
As for `CC(=O)N1C[C@@H]2CN(c3cccc(-c4ccc5nc(-c6cccnc6N)n(-c6ccc(C7(N)CCC7)cc6)c5n4)c3F)C[C@@H]2C1` [Compound 40], in assay [2] (setting [3]), the IC50 was found to be 19 nM.
Take `Nc1ncccc1-c1nc2ccc(-c3cccc(N4CCC(N5CCCCS5(=O)=O)CC4)c3F)nc2n1-c1ccc(C2(N)CCC2)cc1` [Compound 41]: the results for the IC50 in assay [1] and in assay [2] (setting [3]) were 41 nM and 10 nM, respectively.
With `Nc1ncccc1-c1nc2ccc(-c3cccc(N4CCC(N5CCCS5(=O)=O)CC4)c3F)nc2n1-c1ccc(C2(N)CCC2)cc1` [Compound 42], in assay [2] (setting [3]), the IC50 is 21 nM.
For `CC(=O)N(C)[C@@H]1C[C@H]2CC[C@@H](C1)N2c1cccc(-c2ccc3nc(-c4cccnc4N)n(-c4ccc(C5(N)CCC5)cc4)c3n2)c1` [Compound 43], the IC50 in assay [2] (setting [3]) was determined as 47 nM.
Take `CC1CN(c2cccc(-c3ccc4nc(-c5cccnc5N)n(-c5ccc(C6(N)CCC6)cc5)c4n3)c2F)CCC1N1CCCC1=O` (centres unmarked) [Compound 46]: the 50% inhibitory concentration (IC50) in assay [2] (setting [3]) is 7.5 nM.
The same measure, in the same setting: the value for `CC(=O)N1CC2CC(C1)N2c1cccc(-c2ccc3nc(-c4cccnc4N)n(-c4ccc(C5(N)CCC5)cc4)c3n2)c1F` [Compound 47] was 81 nM; that for `CC1CC(N2CCCC2=O)CCN1c1cccc(-c2ccc3nc(-c4cccnc4N)n(-c4ccc(C5(N)CCC5)cc4)c3n2)c1` (centres unmarked) [Compound 48] was 6.9 nM.
Still for that read-out and setting: for `CN1CC2(CC1=O)CN(c1cccc(-c3ccc4nc(-c5cccnc5N)n(-c5ccc(C6(N)CCC6)cc5)c4n3)c1F)C2` [Compound 49] the value was 4 nM.
For the compound `[2H]C([2H])([2H])N(C(C)=O)C1CCN(c2cccc(-c3ccc4nc(-c5cccnc5N)n(-c5ccc(C6(N)CCC6)cc5)c4n3)c2)CC1` [Compound 54], the IC50 in assay [2] (setting [4]) was determined as 2.2 nM.
For `[2H]C([2H])([2H])N(C(C)=O)C1CCN(c2cccc(-c3ccc4nc(-c5cccnc5N)n(-c5ccc(C6(N)CCC6)cc5)c4n3)c2F)CC1` [Compound 55], the IC50 was 7.1 nM in assay [1] and 2.1 nM in assay [2] (setting [3]).
